# Experimental data as given in patent publication US20250122167A1, “Pyrazine Compounds Useful in the Treatment of Parasitic Protozoal Infection” (priority 2021, published 2025).
# Counter-ions that a name gives are not always drawn. Like-named read-outs stand apart in the source and are kept apart here.
# Assays:
# [1] = test system: P. falciparum 3D7A strain parasitized red blood cells; assay: P. falciparum growth inhibition assay Sybr Green; format: cell-based, Plasmodium falciparum; conditions: for IC50: Plasmodium falciparum, Erythrocyte, 48 h
# Method: P. falciparum Growth Inhibition Assay Sybr Green
# The parasite growth is determined measuring the staining of the DNA's minor groove with SYBR Green I, which labels the remaining parasites. The DNA-SYBR complex absorbs light reaching the peak at λ=498 nm and emits at a peak of λ=522 nm.
# Briefly, a culture of 3D7A strain parasitized red blood cells (RBC) (0.5% parasitemia and 2% haematocrit in RPMI-1640 supplemented with 25 ml albumax and […] hypoxanthine for 500 ml) is exposed to 3-fold serial dilutions of the compound. Plates are incubated 48 h at 37° C., 5% CO2, 5% O2, 90% N2. At 48 h of incubation, SyberGreen I solution (2×) is added and plates are incubated for 30 minutes at 37° C., 5% CO2, 5% O2, 90% N2 and then plates are frozen at −80° C. Then plates are read in the EnVision (EnVision Multilabel Plate Reader, Perkin Elmer). Data (pIC50) are generated by ActivityBase (IDBS) and graphs are checked by Spotfire.
# Inhibition of parasite growth in whole cell assay (infected human eritrocites) in vitro is directly linked to reduction of parasitemia in vivo.
# [2] = Kinetic aqueous solubility in PBS pH 7.4 (HPLC-CAD); format: physicochemical; conditions: PBS pH7.4, room temperature, 1 hour equilibration; for solubility at 1 h / solubility kinetic at 1 h: phosphate buffered saline (PBS), pH 7.4, aqueous buffer, kinetic from dmso stock; for solubility kinetic at 1 h: read-out: Concentration; for Solubility: from DMSO stock
# Method: The kinetic aqueous solubility was measured at room temperature after 1 hour equilibration in aqueous phosphate buffered saline (PBS) at pH7.4, and is determined by measuring the concentration of solute in solution after precipitation from DMSO stock solution.
# The sample plate was left to equilibrate for 1 hour at room temperature.
# Vacuum filtration was applied to filter the solution into a 96-well collection plate.
# The filtrate was analysed by HPLC-CAD (Charged Aerosol Detector).
# Calibration standards of Ketoconazole and Primidone were prepared by serial dilutions in DMSO at concentrations ranging from 0.016 to 4.5 mg/ml to produce the calibration curve.
# [3] = test system: Plasmodium falciparum Pf3D7^0087/N9; assay: P. falciparum in vivo efficacy assay (humanised mouse model); conditions: NODscidIL2Rγ mice engrafted with human erythrocytes; for ED90 mean: parasitemia by microscopy and flow cytometry; for AUCED90 mean: blood exposure (AUC0-23h after first dose) at ED90
# Method: Antimalarial in vivo efficacy was determined using the P. falciparum mouse model following the procedure described in: Jimenez-Díaz, M. B., Mulet, T., Viera, S., Gómez, V., Garuti, H., Ibañez, J., Alvarez-Doval, A., Shlutz, D. L., Martinez, A., Improved Murine Model Of Malaria Using Plasmodium falciparum (Competent Strains and Non-Myelodepleted NOD-scid IL2R_null Mice Engrafted with Human Erythrocytes) Antimicrob. Agents Chemother 2009, 53 (10), 4533-4536.
# The goal of the study was to assess the therapeutic efficacy of the examples against Plasmodium falciparum Pf3D7^0087/N9 growing in peripheral blood of NODscidIL2Ry^0087/N9 mice engrafted with human erythrocytes. The levels of the examples were measured in serial peripheral blood samples obtained from each mouse of the efficacy experiment during the first 23 hrs after the first dose. The area under the curve of levels of compound is used to estimate the exposure in blood during the first 23 hours after the first administration (AUC0-23h).
# The effect of Examples 1, 2, 5, 7, 8 and 10 on P. Falciparum Pf3D7^0087/N9 was assessed by microscopy and flow cytometry.
# [4] = Equilibrium solubility in Fasted State Simulated Intestinal Fluid (FaSSIF); conditions: FaSSIF pH 6.5, room temperature, 4 hour equilibration, dynamic range 1-1000 μg/ml
# [5] = physchem; conditions: Fasted State Simulated Intestinal Fluid (FaSSIF), pH 6.5, fassif, thermodynamic from solid
# [6] = average, 48 h incubation, SYBR Green I readout, ditrifluoroacetic acid salt
# [7] = range of values, 48 h incubation, SYBR Green I readout, ditrifluoroacetic acid salt
# [8] = average, 48 h incubation, SYBR Green I readout, dihydrochloride
# [9] = range of values, 48 h incubation, SYBR Green I readout, dihydrochloride
# [10] = average, 48 h incubation, SYBR Green I readout, read-out: Average value pIC50 (converted)
# [11] = range of values, 48 h incubation, SYBR Green I readout, read-out: Pf3D7 pIC50 (converted)
# [12] = read-out: Average value pIC50, average (converted), 48 h incubation, SYBR Green I readout
# [13] = read-out: Pf3D7 pIC50, range of values (converted), 48 h incubation, SYBR Green I readout
smiles,measurement,setting,value
"NC1(CNC(=O)c2ccc(-c3cncc(-c4cncc(F)c4)n3)cc2)CCC1 [Example 1, N-((1-aminocyclobutyl)methyl)-4-(6-(5-fluoropyridin-3-yl)pyrazin-2-yl)benzamide, ditrifluoroacetic acid salt]",Average value pIC50,[1]; [6],8.50
same,Pf3D7 pIC50,[1]; [7],8.48-8.60
same,solubility at 1 h,[2],≥ 0.124 mg/mL
same,solubility kinetic at 1 h,[2],≥ 329 mM
same,ED90 mean,[3]; ditrifluoroacetic acid salt,1.28 mg/kg
same,AUCED90 mean,[3]; ditrifluoroacetic acid salt,0.067 mg · h · mL^−1 · day^−1
same,FaSSIF solubility,[4]; ditrifluoroacetic acid salt,0.429 mg/mL
"NC1(CNC(=O)c2ccc(-c3cncc(-c4cncc(F)c4)n3)cc2)CCC1 [Example 2, N-((1-aminocyclobutyl)methyl)-4-(6-(5-fluoropyridin-3-yl)pyrazin-2-yl)benzamide, dihydrochloride]",Average value pIC50,[1]; [8],8.50
same,Pf3D7 pIC50,[1]; [9],8.47-8.63
same,solubility at 1 h,[2],≥ 0.126 mg/mL
same,solubility kinetic at 1 h,[2],≥ 335 mM
same,ED90 mean,[3]; dihydrochloride,1.14 mg/kg
same,AUCED90 mean,[3]; dihydrochloride,0.121 mg · h · mL^−1 · day^−1
same,solubility at 4 h,[5],0.398 mg/mL
"NC1(CNC(=O)c2ccc(-c3cncc(-c4cncc(F)c4)n3)cc2)CCC1 [Example 3, N-((1-aminocyclobutyl)methyl)-4-(6-(5-fluoropyridin-3-yl)pyrazin-2-yl)benzamide, sulfuric acid salt]",IC50,[1]; [10],3.16 nM
same,IC50,[1]; [11],2.51 to 5.01 nM
same,Solubility,[2],≥0.0947 mg/mL
"NC1(CNC(=O)c2ccc(-c3cncc(-c4cncc(F)c4)n3)cc2)CCC1 [Example 4, N-((1-aminocyclobutyl)methyl)-4-(6-(5-fluoropyridin-3-yl)pyrazin-2-yl)benzamide]",Average value pIC50,"[1]; average, 48 h incubation, SYBR Green I readout",8.60
same,Pf3D7 pIC50,"[1]; range of values, 48 h incubation, SYBR Green I readout",8.54-8.76
same,Solubility,[2],≥0.1298 mg/mL
same,FaSSIF solubility,[4],>1 mg/mL
"NC1(CNC(=O)c2ccc(-c3cncc(-c4cncc(F)c4)n3)cc2)CC1 [Example 5, N-((1-aminocyclopropyl)methyl)-4-(6-(5-fluoropyridin-3-yl)pyrazin-2-yl)benzamide, dihydrochloride]",IC50,[1]; [12],3.16 nM
same,IC50,[1]; [13],2.51 to 4.57 nM
same,solubility at 1 h,[2],≥ 0.114 mg/mL
same,solubility kinetic at 1 h,[2],≥ 313 mM
same,ED90 mean,[3],1.04 mg/kg
same,AUCED90 mean,[3],0.13 mg · h · mL^−1 · day^−1
same,FaSSIF solubility,[4]; dihydrochloride,0.38 mg/mL
"NC1(CNC(=O)c2ccc(-c3cncc(-c4cncc(F)c4)n3)cc2)CC1 [Example 6, N-((1-aminocyclopropyl)methyl)-4-(6-(5-fluoropyridin-3-yl)pyrazin-2-yl)benzamide, ditrifluoroacetic acid salt]",solubility at 1 h,[2],≥ 0.2 mg/mL
same,solubility kinetic at 1 h,[2],≥ 549 mM
same,solubility at 4 h,[5],0.339 mg/mL
"CC(C)(N)CNC(=O)c1ccc(-c2cncc(-c3cncc(F)c3)n2)cc1 [Example 7, N-(2-amino-2-methylpropyl)-4-(6-(5-fluoropyridin-3-yl)pyrazin-2-yl)benzamide, ditrifluoroacetic acid salt]",IC50,[1]; [12],7.94 nM
same,IC50,[1]; [13],7.08 to 8.91 nM
same,solubility at 1 h,[2],≥ 0.0844 mg/mL
same,solubility kinetic at 1 h,[2],≥ 231 mM
same,ED90 mean,[3],1.74 mg/kg
same,AUCED90 mean,[3],0.05 mg · h · mL^−1 · day^−1
same,solubility at 4 h,[5],0.742 mg/mL
"N[C@@H]1CCCC[C@@H]1NC(=O)c1ccc(-c2cncc(-c3cncc(F)c3)n2)cc1 [Example 8, N-((1S,2R)-2-aminocyclohexyl)-4-(6-(5-fluoropyridin-3-yl)pyrazin-2-yl)benzamide, dihydrochloride]",Average value pIC50,[1]; [8],8.40
same,Pf3D7 pIC50,[1]; [9],8.33-8.6
same,solubility at 1 h,[2],≥ 0.106 mg/mL
same,solubility kinetic at 1 h,[2],≥ 271 mM
same,ED90 mean,[3]; dihydrochloride,1.59 mg/kg
same,AUCED90 mean,[3]; dihydrochloride,0.26 mg · h · mL^−1 · day^−1
same,FaSSIF solubility,[4]; dihydrochloride,>1 mg/mL
"N[C@@H]1CCCC[C@@H]1NC(=O)c1ccc(-c2cncc(-c3cncc(F)c3)n2)cc1 [Example 9, N-((1S,2R)-2-aminocyclohexyl)-4-(6-(5-fluoropyridin-3-yl)pyrazin-2-yl)benzamide, ditrifluoroacetic acid salt]",Average value pIC50,[1]; [6],8.60
same,Pf3D7 pIC50,[1]; [7],8.53-8.60
same,solubility at 1 h,[2],0.115 mg/mL
same,solubility kinetic at 1 h,[2],293 mM
same,solubility at 4 h,[5],0.789 mg/mL
"N[C@@H]1CCCC[C@@H]1NC(=O)c1ccc(-c2cncc(-c3cncc(F)c3)n2)cc1 [Example 10, N-((1S,2R)-2-aminocyclohexyl)-4-(6-(5-fluoropyridin-3-yl)pyrazin-2-yl)benzamide]",IC50,[1]; [10],3.16 nM
same,IC50,[1]; [11],3.09 to 3.8 nM
same,Solubility,[2],≥0.1362 mg/mL
same,ED90 mean,[3],0.95 mg/kg
same,AUCED90 mean,[3],0.20 mg · h · mL^−1 · day^−1
same,FaSSIF solubility,[4],0.941 mg/mL
